Publication PMC9686139, “Furanoditerpenes from Spongia (Spongia) tubulifera Display Mitochondrial-Mediated Neuroprotective Effects by Targeting Cyclophilin D” (ACS Chemical Neuroscience, 2022)

What was measured:
human cancer cell lines = test system: human cancer cell lines; design: method as in PMID 31315183; conditions: previous studies; cited from earlier work
Human CypA = Human CypA (Homo sapiens, UniProt P62937); assay: Surface plasmon resonance binding to immobilized CypA; conditions: for Kd: CypA, SPR, 1:1 Langmuir model, PBS-T pH 7.2, 24 °C; for kon: read-out: ka, CypA
Sequence of Human CypA (P62937 whole entry): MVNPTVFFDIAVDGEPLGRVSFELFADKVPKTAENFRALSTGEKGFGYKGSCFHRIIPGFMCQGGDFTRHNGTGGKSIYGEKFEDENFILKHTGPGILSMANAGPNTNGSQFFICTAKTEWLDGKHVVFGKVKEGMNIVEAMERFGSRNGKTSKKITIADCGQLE
Experimental: The protein was immobilized on the sensor surface by amino coupling, as described above (Figure S7), and compounds at several concentrations were added. The same conditions set for CypD were used for CypA experiments, with a flow rate of 20 μL/min and PBS-T (pH 7.2) as the running buffer.
Figure 9 Binding of compounds to CypA measured by surface plasmon resonance. The left panels present association curves obtained by the addition of compounds over immobilized CypA and subtraction of their respective vehicle signal. The right panels show fitting curves for equilibrium binding. Representative graphs of one independent replicate. […] Kinetic equilibrium dissociation constants (KD) and fitting curves were obtained with TraceDrawer software.
(§2) SPR measurements were performed using the MP-SPR Navi 210A VASA instrument with SPR Navi Control software (BioNavis, Tampere, Finland). All of the analyses were carried out in three-dimensional (3D) carboxymethyl dextran hydrogel-coated (CMD-3DM) sensors (BioNavis). PBS, 0.05% Tween (pH 7.2) was used as the running buffer for sensor activation, protein immobilization, and analyte injection. All buffers were degassed and filtered by 0.22 μm before use. The flow rate and temperature were set at 20 μL/min and 24 °C, respectively. A commercial Amine Coupling Kit (Xantec bioanalytics GmbH, Düsseldorf, Germany) was used for sensor activation and Cyps immobilization. The chip surface was preconditioned with 2 M NaCl and 0.01 M NaOH. Then, the surface was activated by the addition of 0.2 M 1-ethyl-3-(3-dimethylaminopropyl)carbodiimide hydrochloride (EDC) and 0.05 M N-hydroxysuccinimide (NHS). After activation, 50 μg/mL of CypA or CypD dissolved in 5 mM sodium acetate buffer (pH 4.5) were injected for immobilization on the sensor surface. […] Compound injections were performed in serial mode, and the reference channel signal was subtracted from the analyte sensorgram. Data were processed with MP-SPR Navi Data Viewer (BioNavis), and KD values were obtained using the 1:1 Langmuir model with mass transport considerations of TraceDrawer software (RidgeView Instruments Ab, Uppsala, Sweden). All of the experiments were performed three independent times.

[1] = design: method as in doi:10.1246/cl.1987.1687; conditions: previous studies; cited from earlier work
[2] = test system: mitochondrial permeability transition pore (mPTP); assay: mPTP opening, calcein-AM/CoCl2 flow cytometry; conditions: 0.001 μM, 15 min pretreatment, TBHP 3 min
Experimental: SH-SY5Y cells were treated for 15 min with 1–5, and 1 mM tert-butyl hydroperoxide (TBHP) was used to open the pore. Cells were loaded with calcein-AM, which accumulates in cytosol and cell compartments and with CoCl2 that quenches cytosolic fluorescence but not the mitochondrial signal.[17] Then, fluorescence was analyzed by flow cytometry (Figure 6a). […] (a) Analysis of mPTP opening. Cells were treated with compounds at 0.001 μM for 15 min, and pore opening was induced with 1 mM TBHP. Calcein-AM and CoCl2 were used to measure mPTP aperture by flow cytometry. […] Values are presented as the percentage of control cells. Data are mean ± SEM of three independent experiments. Statistical differences determined by one-way ANOVA and Dunnett’s tests. ^###p < 0.001 compared to control cells. *p < 0.05 and **p < 0.01 compared to cells treated only with TBHP.
The inhibition of mPTP by compounds was determined with the MitoProbe Transition Pore Assay Kit, as previously described.[21] For this assay, cells were seeded in 12-well plates at 5 × 10^5 cells per well and allowed to grow for 24 h. Then, SH-SY5Y cells were detached with Detachin solution (Genlatis, San Diego), washed with PBS, and resuspended in PBS buffer with 0.6 mM CaCl2. Cells were loaded with 0.01 μM calcein-AM and incubated at 37 °C for 15 min. Then, 0.4 mM CoCl2 and compounds at 0.001 μM were added and cells were incubated for 15 min at 37 °C. After this incubation, cells were centrifuged, resuspended in 100 μL of calcium-free PBS, and kept on ice. Finally, TBHP at 1 mM was added for 3 min to the cells to induce the pore opening. […] The fluorescence of 10 000 events was analyzed with IDEAS Application vs 6.0 (Amnis Corporation, Luminex Corp).

CypB = conditions: compound alone 0.001 μM, 6 h; % of untreated control cells
Experimental: Before starting the experiments, antibody specificity was determined due to the conserved structures along Cyps. […] Human neuroblastoma cells were treated with compounds at 0.001 μM for 6 h, and Cyps expression was determined by Western blot (Figure 10).
SH-SY5Y cells were treated with 1–5 at 0.001 μM for 6 h, and their effects on Cyps expression were determined by Western blot. […] Protein band expression was normalized by actin levels. Results expressed as the percentage of untreated control cells or as the percentage of H2O2 control. Mean ± SEM of three replicates carried out in duplicate. Statistical differences determined by one-way ANOVA and Dunnett’s tests. ^#p < 0.05 and ^##p < 0.01 compared to control cells. *p < 0.05, **p < 0.01, and ***p < 0.01 compared to cells treated with H2O2 alone.
SH-SY5Y cells were cultured in 12-well plates at 1 × 10^6 cells per well and allowed to settle down for 24 h. Then, cells were treated with compounds at 0.001 μM for 6 h and oxidative damage was induced with 150 μM H2O2.
Cells were washed twice with ice-cold PBS, and a hypotonic solution was added (20 mM tris–HCl pH 7.4, 10 mM NaCl, and 3 mM MgCl2, containing phosphatase and protease inhibitor cocktail). […] The supernatant was collected as the cytosolic fraction, and protein concentration was quantified with the Direct Detect instrument (Merck Millipore, Darmstadt, Germany).[15] […]

human CypD = human CypD (Homo sapiens, UniProt P30405); assay: Surface plasmon resonance binding to immobilized CypD; conditions: for kon: read-out: ka, CypD; for selectivity between CypD and CypA (KD values): CypD versus CypA
Sequence of human CypD (P30405 30-207): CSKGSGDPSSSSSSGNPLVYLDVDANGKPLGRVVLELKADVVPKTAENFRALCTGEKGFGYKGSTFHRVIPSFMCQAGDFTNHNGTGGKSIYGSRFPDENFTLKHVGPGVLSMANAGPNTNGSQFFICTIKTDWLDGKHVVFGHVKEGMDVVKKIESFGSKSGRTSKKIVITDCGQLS
Experimental: With this objective, surface plasmon resonance (SPR) experiments were performed. CypD was immobilized in the sensor surface as a ligand, and 1–5 were injected as analytes. […] For immobilization, amine groups were activated with 1-ethyl-3-(3-dimethylaminopropyl)carbodiimide hydrochloride (EDC) and N-hydroxysuccinimide (NHS) and 50 μg/mL of human CypD dissolved in 5 mM sodium acetate (pH 4.5) was added. […] All of the assays were carried out with phosphate-buffered saline (PBS)—0.05% Tween (pH 7.2) as the running buffer, with a flow rate of 20 μL/min at 24 °C.
The left panels present association curves obtained by the addition of compounds over immobilized CypD and subtraction of their respective solvent control. The right panels show fitting curves for equilibrium binding. Representative graphs of one independent replicate. […] All injections were performed using PBS, 0.05% Tween (pH 7.2) as the running buffer. Kinetic equilibrium dissociation constants (KD) and fitting curves were obtained with TraceDrawer software.
as §2

CypD = CypD expression by Western blot; conditions: compound 0.001 μM + 150 μM H2O2, 6 h; % of H2O2 control cells
Text: (b) CypD expression after treatment with S. tubulifera metabolites. (c) Effect of compounds on the CypD expression under oxidative stress conditions. […] Protein band expression was normalized by actin levels. Results are mean ± SEM of three replicates carried out in duplicate. Data expressed as the percentage of untreated control cells and H2O2 control. Values compared by one-way ANOVA and Dunnett’s tests. ^#p < 0.05 and ^##p < 0.01 compared to control cells. *p < 0.05 and **p < 0.01 compared to cells treated with H2O2 alone.
In this context, the expression of this protein was analyzed after treatment with compounds. CypD cytosolic levels were evaluated after treatment with 1–5 alone for 6 h and after the coaddition of diterpenes and H2O2 to get a complete insight into diterpene mitochondria-related effects.
SH-SY5Y cells were cultured in 12-well plates at 1 × 10^6 cells per well and allowed to settle down for 24 h.
Cells were washed twice with ice-cold PBS, and a hypotonic solution was added (20 mM tris–HCl pH 7.4, 10 mM NaCl, and 3 mM MgCl2, containing phosphatase and protease inhibitor cocktail). Cells were incubated for 15 min on ice and centrifuged at 3000 rpm and 4 °C for 15 min. The supernatant was collected as the cytosolic fraction, and protein concentration was quantified with the Direct Detect instrument (Merck Millipore, Darmstadt, Germany).[15]
Electrophoresis was resolved in 4–20% sodium dodecyl sulfate polyacrylamide gels (Biorad, Hercules, CA), containing 15 μg of cytosolic protein from each sample. The Trans-Blot semidry transfer cell (Biorad) was used to transfer proteins to poly(vinylidene difluoride) (PVDF) membranes (Merck Millipore). Snap i.d. system (Merck Millipore) was used for membrane blocking and antibody incubation. […] Immunoreactive bands were detected with Supersignal West Pico Luminiscent Substrate and Supersignal West Femto Maximum Sensitivity Substrate. Diversity GeneSnap system and software (Syngene, Cambridge, U.K.) were used for protein band detection. Experiments were performed three independent times in duplicate.

SH-SY5Y cells [3] = assay: ROS intracellular levels, carboxy-H2DCFDA; assay type: cell-based, human; conditions: for effect on ROS content: cotreatment with 150 μM H2O2, 6 h
Experimental: Next, the capacity of S. tubulifera metabolites to decrease ROS intracellular levels was evaluated (Figure 4). […] Regarding the oxidative stress model, H2O2 augmented the levels of oxidant molecules up to 125.1 ± 2.4% (p < 0.01) and the known antioxidant Vit E, used as a positive control, induced a reduction in ROS release of 24% with respect to cells treated only with H2O2 (p < 0.05).
Figure 4 ROS intracellular levels after treatment with compounds. Furanoditerpenes were added for 6 h in the absence and presence of 150 μM H2O2. Then, the ROS content was measured with the fluorescent dye 5-(and-6)-carboxy-2′,7′-dichlorodihydrofluorescein diacetate (carboxy-H2DCFDA). Results from (a) 1, (b) 2, (c) 3, (d) 4, and (e) 5. Vitamin E (Vit E) at 25 μM was used as a positive control. Data expressed as the percentage of untreated control cells. Mean ± SEM of three experiments performed in triplicate. Statistical differences determined by one-way ANOVA test followed by Dunnett’s post hoc test. ^##p < 0.01 compared to control cells. *p < 0.05, **p < 0.01, and ***p < 0.01 compared to H2O2 control.
(§1) For these experiments, cells were seeded in 384-well plates and treated as described above. All of the assays were carried out as previously described.[15]
The fluorescent dye 5-(and-6)-carboxy-2′,7′-dichlorodihydrofluorescein diacetate (carboxy-H2DCFDA) was used to evaluate ROS levels. After treatment with compounds and H2O2, cells were washed twice with serum-free medium. Next, cells were loaded with 20 μM carboxy-H2DCFDA dissolved in serum-free medium, and the plate was incubated for 1 h at 37 °C and 300 rpm. Then, 100 μL of PBS were added to each well for 30 min at 37 °C and 300 rpm. After this incubation, the fluorescence was read at […].

SH-SY5Y cells [4] = assay: GSH content, Thiol Tracker Violet; assay type: cell-based, human
Experimental: To confirm the antioxidant properties of S. tubulifera compounds, the levels of the most important nonenzymatic antioxidant of cells, glutathione (GSH), were assessed. […] Regarding diterpene 2, an increase in the nonenzymatic antioxidant was observed when cells were cotreated with H2O2 and this compound at 0.001 and 1 μM (p < 0.05) (Figure 5b). No effects were found after the addition of 3 (Figure 5c), but 4 and 5 presented interesting results (Figure 5d,e).
Figure 5 Effect of S. tubulifera metabolites in the GSH content of human neuroblastoma cells. SH-SY5Y cells were treated with compounds for 6 h with and without 150 μM H2O2. GSH levels were monitored with Thiol Tracker Violet dye. (a) Compound 1, (b) compound 2, (c) compound 3, (d) compound 4, and (e) compound 5 results. Vitamin E (Vit E) at 25 μM was used as a positive control. Mean ± SEM of three experiments performed in triplicate. Data presented as the percentage of untreated control cells and compared by one-way ANOVA and Dunnett’s tests. ^##p < 0.01 compared to control cells. *p < 0.05 compared to cells treated with H2O2 alone.
as §1
Thiol Tracker Violet was used to measure intracellular GSH levels, following the manufacturer’s instructions. Briefly, human neuroblastoma cells were rinsed twice with PBS and the fluorescence dye at 10 μM was added. The plate was incubated for 30 min at 37 °C and 300 rpm, and the fluorescence was measured at 404 nm excitation and 526 nm emission in a plate reader. All experiments were performed three independent times in triplicate.

CypC = CypC expression by Western blot; conditions: 0.001 μM + 150 μM H2O2, 6 h; % of H2O2 control
Experimental: (§3) Human neuroblastoma cells were treated with compounds at 0.001 μM for 6 h, and Cyps expression was determined by Western blot (Figure 10). […] SH-SY5Y cells were treated with 1–5 at 0.001 μM for 6 h, and their effects on Cyps expression were determined by Western blot. […] Protein band expression was normalized by actin levels. Results expressed as the percentage of untreated control cells or as the percentage of H2O2 control. Mean ± SEM of three replicates carried out in duplicate. Statistical differences determined by one-way ANOVA and Dunnett’s tests. ^#p < 0.05 and ^##p < 0.01 compared to control cells. *p < 0.05, **p < 0.01, and ***p < 0.01 compared to cells treated with H2O2 alone. […]
(§4) Cells were washed twice with ice-cold PBS, and a hypotonic solution was added (20 mM tris–HCl pH 7.4, 10 mM NaCl, and 3 mM MgCl2, containing phosphatase and protease inhibitor cocktail). […] The supernatant was collected as the cytosolic fraction, and protein concentration was quantified with the Direct Detect instrument (Merck Millipore, Darmstadt, Germany).[15]
(§5) Electrophoresis was resolved in 4–20% sodium dodecyl sulfate polyacrylamide gels (Biorad, Hercules, CA), containing 15 μg of cytosolic protein from each sample. […] Immunoreactive bands were detected with Supersignal West Pico Luminiscent Substrate and Supersignal West Femto Maximum Sensitivity Substrate. […]

CypA = CypA expression by Western blot; conditions: 0.001 μM, 6 h; physiological and oxidative stress (150 μM H2O2) conditions
Experimental: as §3, §4, §5

SH-SY5Y cells [5] = assay: Mitochondrial membrane potential (ΔΨm), TMRM dye; assay type: cell-based, human; conditions: 150 μM H2O2, 6 h; compound 0.001 μM; percentage of control cells
Experimental: Since mitochondria are key players in neurodegeneration, acting as main producers and targets of ROS,[16] mitochondrial function was determined by analyzing the mitochondrial membrane potential (ΔΨm) with the fluorescent dye tetramethylrhodamine methyl ester (TMRM).
Figure 3 Effect of furanoditerpenes on ΔΨm of human neuroblastoma cells. Cells were treated for 6 h with S. tubulifera metabolites with and without 150 μM H2O2, and ΔΨm was determined with the TMRM dye. (a) Compound 1, (b) compound 2, (c) compound 3, (d) compound 4, and (e) compound 5 effects. Vitamin E (Vit E) at 25 μM was used as a positive control in oxidative stress assays. Data expressed as the percentage of control cells. Mean ± SEM of three experiments performed in triplicate. Statistical differences determined by one-way ANOVA and Dunnett’s tests. ^#p < 0.05 compared to untreated control cells. *p < 0.05, **p < 0.01, and ***p < 0.01 compared to cells treated with H2O2 alone.
To determine the neuroprotective effects of compounds, SH-SY5Y cells were seeded in 384-well plates at a density of 2.5 × 10^4 cells per well. After 24 h, cells were treated with the metabolites at nontoxic concentrations (0.001–1 μM) and 150 μM H2O2 for 6 h. […]
The effects of compounds in ΔΨm were analyzed with the fluorescent dye TMRM. […] The fluorescence was read in a plate reader at 535 nm excitation and 590 nm emission. […]

SH-SY5Y cells [6] = assay: Cell viability in H2O2 oxidative stress model, MTT assay; assay type: cell-based, human; conditions: 150 μM H2O2, 6 h; 0.001-1 μM
Experimental: First, the capacity of 1–5 to improve cell survival under oxidative stress conditions was determined with the MTT assay (Figure 2). […] When cells were injured with the oxidant specie, a decrease in the cell viability of 23.6 ± 3.5% (p < 0.05) was observed.
Figure 2 Effect of compounds on the cell viability of SH-SY5Y cells. Compounds were added to human neuroblastoma cells for 6 h with and without 150 μM H2O2, and cell viability was evaluated with the MTT assay. Results of (a) compound 1, (b) compound 2, (c) compound 3, (d) compound 4, and (e) compound 5. Vitamin E (Vit E) at 25 μM was used as a positive control in oxidative stress assays. Mean ± standard error of the mean (SEM) of three experiments performed in triplicate. Data expressed as the percentage of control cells, compared by one-way analysis of variance (ANOVA) and Dunnett’s tests. ^#p < 0.05 compared to untreated control cells. *p < 0.05 and **p < 0.01 compared to cells treated with H2O2 alone. […]
The ability of compounds to protect cell viability from H2O2 was evaluated with 3-(4,5-dimethylthiazol-2-yl)-2,5-diphenyltetrazolium bromide (MTT) test. […] The absorbance of formazan crystals was measured at 595 nm with a plate reader. Saponin at 40 mg/mL was used as the death control, and its absorbance value was subtracted from the other data.

Row | Kd (Human CypA) [µM] | kon (Human CypA) [M⁻¹ s⁻¹] | SMILES | cytotoxicity (human cancer cell lines) | Kd (human CypD) [µM] | kon (human CypD) [M⁻¹ s⁻¹] | CypD expression under oxidative damage (CypD) | selectivity between CypD and CypA (KD values) (human CypD; SPR) | also measured
1 | 14.7 ± 1.08 | 1320 | CC1(C)C(=O)C(O)=C[C@]2(C)[C@H]3CCc4cocc4[C@]3(C)CC[C@@H]12 [Compound 2] | – | 2.53 ± 0.006 | 10000 | 37.9 ± 17.9% | selectivity toward the mitochondrial isoform | ROS levels (SH-SY5Y cells [3]; 150 μM H2O2, 6 h, compound 0.1 μM, percentage of untreated control cells): 89.9 ± 5.7%; effect on ROS content (SH-SY5Y cells [3]; at 0.001, 0.1 and 1 μM): reduced the levels; effect on GSH content (SH-SY5Y cells [4]; cotreated with 150 μM H2O2, 6 h, at 0.001 and 1 μM): increase; CypC expression under oxidative injury (CypC): 24.3 ± 2.9%
2 | 15.2 ± 1.31 | 682 | CC1(C)[C@@H](O)C(=O)C[C@]2(C)[C@H]3CCc4cocc4[C@]3(C)CC[C@@H]12 [Compound 1] | weak cytotoxicity | – | – | about 54% | selective toward CypA | effect on CypA expression (CypA): decreased its expression; ΔΨm (SH-SY5Y cells [5]): 96.7 ± 5.4%; SPR signal, CypA (Human CypA; at 50 μM): 9.9 mdeg; protection of cell viability from H2O2 damage (SH-SY5Y cells [6]): not able to protect; effect on ROS content (SH-SY5Y cells [3]; all four concentrations 0.001-1 μM): significant decrease; effect on GSH content (SH-SY5Y cells [4]; compound alone and with 150 μM H2O2, 6 h): did not affected the GSH content; KD (kinetic equilibrium dissociation constant), CypD (human CypD; SPR, 1:1 Langmuir model, PBS-0.05% Tween pH 7.2, 24 °C): No binding; ka, CypD (human CypD; SPR, Table S1): No binding; kd, CypD (human CypD; SPR, Table S1): No binding; binding to CypD (human CypD; SPR, up to 50 μM): No binding

Row | SMILES | Kd (Human CypA) [µM] | kon (Human CypA) [M⁻¹ s⁻¹] | cytotoxicity (human cancer cell lines) | Kd (human CypD) [µM] | kon (human CypD) [M⁻¹ s⁻¹] | CypD expression under oxidative damage (CypD) | selectivity between CypD and CypA (KD values) (human CypD; SPR) | also measured
3 | C[C@]12CC(=O)[C@H](O)[C@](C)(CO)[C@@H]1CC[C@@]1(C)c3cocc3CC[C@H]21 [Compound 4, epispongiadiol] | 27.4 ± 3.68 | 861 | weak cytotoxicity | 30.4 ± 0.87 | 738 | about 54% | – | antiviral activity [1]: antiviral activity; inhibition of mPTP opening after oxidative injury [2]: able to inhibit mPTP opening; CypB expression (CypB): 48.54 ± 11.4%
